Reference: the supplement of paper PMC10627819

Key:
S. pneumoniae D39V [1] = assay: Bliss interaction score (quartile over a dose matrix) (fitness difference); higher = more antagonism (negative = synergy)
How it was run: (§1)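 The Bliss score takes observed fitness and subtracts the expected fitness, calculated as a product of single-drug fitness values. Those single-drug values were inferred from the combination data. Fitness is OD595 at entry into stationary phase divided by the plate's robust no-drug mean, capped at 1, and the score is summarised by quartiles across technical, biological and donor/recipient replicates.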

B. subtilis 168 [2] = assay: as above
How it was run: as §1

S. aureus Newman [3] = assay: as above
How it was run: as §1

S. aureus DSM 20231 [4] = assay: as above
How it was run: as §1

S. pneumoniae D39V [5] = assay: fitness (endpoint OD595 vs no drug) (fraction); higher = more growth
How it was run: (§2)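 At 37 °C, bacteria in TSB, LB Lennox or CY were grown in 384-well plates from a starting OD595 of 0.01. OD595 was measured every 30 min for 14 h, with the first reading used as background. Fitness is the optical density at the switch to stationary phase as a fraction of the robust mean of no-drug control wells, capped at 1.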

B. subtilis 168 [6] = assay: as above
How it was run: as §2

S. aureus Newman [7] = assay: as above
How it was run: as §2

S. aureus DSM 20231 [8] = assay: as above
How it was run: as §2
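Throughout, for Bliss interaction score (quartile over a dose matrix): first quartile when negative (synergy) and third quartile when positive (antagonism).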
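Throughout, for fitness (endpoint OD595 vs no drug): OD595 on entry to stationary phase over no-drug wells; at most 1.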

Cc1ncc([N+](=O)[O-])n1CCO [Metronidazole] + CN(N=O)C(=O)N[C@@H](C=O)[C@@H](O)[C@H](O)[C@H](O)CO [Streptozotocin]
Conditions	Bliss interaction score
B. subtilis 168 [2]	-0.0488
S. aureus DSM 20231 [4]	-0.0474
S. aureus Newman [3]	0.0626
S. pneumoniae D39V [1]	0.0474

fitness
Conditions	first compound 0.625 µg/mL	first compound 1.073 µg/mL	first compound 1.25 µg/mL	first compound 2.145 µg/mL	first compound 2.5 µg/mL	first compound 4.29 µg/mL
S. aureus DSM 20231 [8], partner 0.15 µg/mL	0.876	–	0.888	–	0.905	–
S. aureus DSM 20231 [8], partner 0.3 µg/mL	0.791	–	0.752	–	0.831	–
S. aureus DSM 20231 [8], partner 0.6 µg/mL	0.683	–	0.701	–	0.734	–
S. aureus Newman [7], partner 0.15 µg/mL	0.838	–	0.833	–	0.816	–
S. aureus Newman [7], partner 0.3 µg/mL	0.725	–	0.742	–	0.731	–
S. aureus Newman [7], partner 0.6 µg/mL	0.579	–	0.568	–	0.591	–
S. pneumoniae D39V [5], partner 1.2 µg/mL	–	0.942	–	0.934	–	0.96
S. pneumoniae D39V [5], partner 2.4 µg/mL	–	0.961	–	0.904	–	0.743
S. pneumoniae D39V [5], partner 4.8 µg/mL	–	0.966	–	0.946	–	0.979

fitness, one replicate
Conditions	partner 0.15 µg/mL	partner 0.3 µg/mL	partner 0.6 µg/mL	partner 1.2 µg/mL	partner 2.4 µg/mL	partner 4.8 µg/mL
B. subtilis 168 [6], first compound 0.625 µg/mL	≥ 1	≥ 1	≥ 1	–	–	–
B. subtilis 168 [6], first compound 1.25 µg/mL	0.91	≥ 1	≥ 1	–	–	–
B. subtilis 168 [6], first compound 2.5 µg/mL	0.956	0.941	0.976	–	–	–
S. aureus Newman [7], first compound 0.781 µg/mL	0.907	0.717	0.523	–	–	–
S. aureus Newman [7], first compound 1.562 µg/mL	0.875	0.722	0.519	–	–	–
S. aureus Newman [7], first compound 3.124 µg/mL	0.796	0.709	0.505	–	–	–
S. pneumoniae D39V [5], first compound 1.25 µg/mL	–	–	–	≥ 1	≥ 1	≥ 1
S. pneumoniae D39V [5], first compound 2.5 µg/mL	–	–	–	0.98	≥ 1	≥ 1
S. pneumoniae D39V [5], first compound 5 µg/mL	–	–	–	0.959	≥ 1	≥ 1

COc1cccc2c1C(=O)c1c(O)c3c(c(O)c1C2=O)C[C@@](O)(C(=O)CO)C[C@@H]3O[C@H]1C[C@H](N)[C@H](O)[C@H](C)O1 [Doxorubicin] + O=C(O[C@@H]1Cc2c(O)cc(O)cc2O[C@@H]1c1cc(O)c(O)c(O)c1)c1cc(O)c(O)c(O)c1 [EGCG]
Conditions	Bliss interaction score
B. subtilis 168 [2]	-0.0819
S. aureus DSM 20231 [4]	-0.107
S. aureus Newman [3]	0.0447
S. pneumoniae D39V [1]	0.0782

fitness
Conditions	partner 6.25 µg/mL	partner 12.5 µg/mL	partner 25 µg/mL	partner 50 µg/mL
B. subtilis 168 [6], first compound 0.625 µg/mL	0.934	0.617	–	–
B. subtilis 168 [6], first compound 1.25 µg/mL	0.932	0.554	–	–
B. subtilis 168 [6], first compound 2.5 µg/mL	0.737	0.429	–	–
S. aureus DSM 20231 [8], first compound 0.625 µg/mL	–	0.688	0.707	–
S. aureus DSM 20231 [8], first compound 1.25 µg/mL	–	0.708	0.676	–
S. aureus DSM 20231 [8], first compound 2.5 µg/mL	–	0.728	0.715	–
S. aureus Newman [7], first compound 0.625 µg/mL	–	0.731	0.712	–
S. aureus Newman [7], first compound 1.25 µg/mL	–	0.705	0.703	0.594
S. aureus Newman [7], first compound 2.5 µg/mL	–	0.678	0.66	0.617
S. pneumoniae D39V [5], first compound 0.25 µg/mL	–	0.916	0.987	0.924
S. pneumoniae D39V [5], first compound 0.5 µg/mL	–	0.904	0.845	≥ 1
S. pneumoniae D39V [5], first compound 1 µg/mL	–	–	0.804	0.903

Cc1ncc([N+](=O)[O-])n1CCO [Metronidazole] + C[n+]1ccc(-c2cc[n+](C)cc2)cc1 [Paraquat]
Conditions	Bliss interaction score
B. subtilis 168 [2]	0.0442
S. aureus DSM 20231 [4]	0.0478
S. aureus Newman [3]	0.0779
S. pneumoniae D39V [1]	-0.0431

fitness
Conditions	first compound 0.625 µg/mL	first compound 1.073 µg/mL	first compound 1.25 µg/mL	first compound 2.145 µg/mL	first compound 2.5 µg/mL	first compound 4.29 µg/mL
B. subtilis 168 [6], partner 1.25 µg/mL	0.973	–	0.949	–	0.917	–
B. subtilis 168 [6], partner 2.5 µg/mL	0.957	–	0.929	–	0.917	–
B. subtilis 168 [6], partner 5 µg/mL	0.851	–	0.864	–	0.851	–
S. aureus DSM 20231 [8], partner 1.25 µg/mL	0.97	–	≥ 1	–	≥ 1	–
S. aureus DSM 20231 [8], partner 2.5 µg/mL	0.954	–	≥ 1	–	≥ 1	–
S. aureus DSM 20231 [8], partner 5 µg/mL	0.955	–	0.978	–	≥ 1	–
S. aureus Newman [7], partner 1.25 µg/mL	0.936	–	0.875	–	0.862	–
S. aureus Newman [7], partner 2.5 µg/mL	0.944	–	0.934	–	0.963	–
S. aureus Newman [7], partner 5 µg/mL	0.888	–	0.932	–	0.973	–
S. pneumoniae D39V [5], partner 1.5 µg/mL	–	0.969	–	0.958	–	0.899
S. pneumoniae D39V [5], partner 3 µg/mL	–	0.999	–	0.905	–	0.95
S. pneumoniae D39V [5], partner 6 µg/mL	–	0.982	–	0.803	–	0.912

fitness, one replicate
Conditions	first compound 0.781 µg/mL	first compound 1.25 µg/mL	first compound 1.562 µg/mL	first compound 2.5 µg/mL	first compound 3.124 µg/mL	first compound 5 µg/mL
S. aureus Newman [7], partner 1.25 µg/mL	0.916	–	0.899	–	0.844	–
S. aureus Newman [7], partner 2.5 µg/mL	0.951	–	0.874	–	0.908	–
S. aureus Newman [7], partner 5 µg/mL	0.919	–	0.907	–	0.984	–
S. pneumoniae D39V [5], partner 1.5 µg/mL	–	0.983	–	≥ 1	–	≥ 1
S. pneumoniae D39V [5], partner 3 µg/mL	–	0.99	–	≥ 1	–	≥ 1
S. pneumoniae D39V [5], partner 6 µg/mL	–	≥ 1	–	≥ 1	–	≥ 1

C[C@@H]1O[C@@H]1P(=O)(O)O [Fosfomycin] + CC1=C\[C@@H](O)CC(=O)Cc2nc(co2)C(=O)N2CCC=C2C(=O)O[C@H](C(C)C)[C@H](C)/C=C/C(=O)NC\C=C\1 [Virginiamycin M1]
Conditions	Bliss interaction score
B. subtilis 168 [2]	0.0317
S. aureus DSM 20231 [4]	-0.0507
S. aureus Newman [3]	-0.0636
S. pneumoniae D39V [1]	-0.0376

fitness, one replicate
Conditions	first compound 0.781 µg/mL	first compound 1.25 µg/mL	first compound 1.562 µg/mL	first compound 2.5 µg/mL	first compound 3.124 µg/mL	first compound 5 µg/mL
S. aureus DSM 20231 [8], partner 0.5 µg/mL	0.847	–	0.614	–	0.412	–
S. aureus DSM 20231 [8], partner 1 µg/mL	0.771	–	0.643	–	0.386	–
S. aureus Newman [7], partner 0.5 µg/mL	0.626	–	0.557	–	0.299	–
S. aureus Newman [7], partner 1 µg/mL	0.614	–	0.478	–	0.182	–
S. aureus Newman [7], partner 2 µg/mL	0.463	–	0.297	–	0.0494	–
S. pneumoniae D39V [5], partner 0.15 µg/mL	–	0.968	–	0.926	–	0.892
S. pneumoniae D39V [5], partner 0.3 µg/mL	–	0.89	–	0.908	–	0.897

fitness
Conditions	partner 0.0625 µg/mL	partner 0.125 µg/mL	partner 0.25 µg/mL	partner 0.5 µg/mL	partner 1 µg/mL	partner 2 µg/mL
B. subtilis 168 [6], first compound 1.562 µg/mL	0.728	0.688	0.727	–	–	–
B. subtilis 168 [6], first compound 3.124 µg/mL	0.603	0.565	0.576	–	–	–
B. subtilis 168 [6], first compound 6.248 µg/mL	0.488	0.43	0.427	–	–	–
S. aureus DSM 20231 [8], first compound 0.781 µg/mL	0.755	0.783	0.783	–	–	–
S. aureus DSM 20231 [8], first compound 1.562 µg/mL	0.533	0.581	0.605	–	–	–
S. aureus DSM 20231 [8], first compound 3.124 µg/mL	0.487	0.49	0.506	–	–	–
S. aureus Newman [7], first compound 0.781 µg/mL	0.538	0.567	0.555	–	–	–
S. aureus Newman [7], first compound 1.562 µg/mL	0.503	0.511	0.528	–	–	–
S. aureus Newman [7], first compound 3.124 µg/mL	0.173	0.168	0.149	–	–	–
S. pneumoniae D39V [5], first compound 1.25 µg/mL	–	–	–	0.958	0.944	0.928
S. pneumoniae D39V [5], first compound 2.5 µg/mL	–	–	–	0.987	0.956	0.905
S. pneumoniae D39V [5], first compound 5 µg/mL	–	–	–	0.852	0.831	0.854
